The source of these data is patent US7718647B2, “Substituted azepine derivatives as serotonin receptor modulators” (Athersys, Inc., priority 2004, dated 2010).

pEC50: −log10 of the molar value. Where only a bound is given, the exact number is not on record here.

The test concerns the target T1, human 5HT2c receptor (Homo sapiens, UniProt P28335, I156V/I160V, form not given).
T1 sequence (P28335 1-458 I156V/N158S/I160V): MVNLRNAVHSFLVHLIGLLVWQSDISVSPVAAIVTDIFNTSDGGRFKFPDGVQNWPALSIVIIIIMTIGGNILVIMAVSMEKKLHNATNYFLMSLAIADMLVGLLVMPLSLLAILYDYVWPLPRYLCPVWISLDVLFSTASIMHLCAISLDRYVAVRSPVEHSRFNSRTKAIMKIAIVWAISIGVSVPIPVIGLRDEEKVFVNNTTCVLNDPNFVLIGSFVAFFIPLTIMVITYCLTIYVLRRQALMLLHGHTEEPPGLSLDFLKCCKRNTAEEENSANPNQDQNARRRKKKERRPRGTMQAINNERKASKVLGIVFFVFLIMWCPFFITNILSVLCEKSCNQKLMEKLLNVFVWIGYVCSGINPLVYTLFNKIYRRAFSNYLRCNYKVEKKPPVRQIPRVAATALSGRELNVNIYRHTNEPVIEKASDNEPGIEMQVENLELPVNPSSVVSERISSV
Briefly: Calcium mobilization (FLIPR) 5HT2c receptor agonist assay in HEK 293 EBNA cells. It counts as cell-based. As to conditions: agonist-stimulated calcium release, HEK 293 EBNA cells expressing human 5HT2c receptor, read-out: 5-HT2c EC50 (hVSV). A general note: Calcium assays in cells follow changes in intracellular calcium, usually with a dye or a luminescent sensor.
By pEC50 is commonly meant the negative decadic logarithm of the EC50, by convention in mol/L. On to `CN(C)C(=O)c1cc2c(s1)CCNCC2` [Example 30, 5,6,7,8-Tetrahydro-4H-thieno[2,3-d]azepine-2-carboxylic acid dimethylamide], for which the pEC50 is above 6.00.

On to `CC1(C)CNCCc2cc(Br)sc21` [Example 34, 2-Bromo-8,8-dimethyl-5,6,7,8-tetrahydro-4H-thieno[2,3-d]azepine], for which the pEC50 was above 5.00.

With `FC(F)(F)c1cc2c(s1)CCNCC2` [Example 40, 2-Trifluoromethyl-5,6,7,8-tetrahydro-4H-thieno[2,3-d]azepine], the pEC50 is above 8.00.

As for `FC(F)(F)c1sc2c(c1Cl)CCNCC2` [Example 41, 3-Chloro-2-trifluoromethyl-5,6,7,8-tetrahydro-4H-thieno[2,3-d]azepine], the pEC50 was above 7.00.

On to `FC(F)(F)c1sc2c(c1Br)CCNCC2` [Example 42, 3-Bromo-2-trifluoromethyl-5,6,7,8-tetrahydro-4H-thieno[2,3-d]azepine], for which the pEC50 is above 8.00.

For `Cc1csc2c1CCNCC2` [Example 43, 3-Methyl-5,6,7,8-tetrahydro-4H-thieno[2,3-d]azepine], the pEC50 is above 6.00.

On to `COc1c(C(C)(C)C)sc2c1CCNCC2` [Example 44, 2-tert-Butyl-3-methoxy-5,6,7,8-tetrahydro-4H-thieno[2,3-d]azepine], for which the pEC50 is above 8.00.

As to `CC(C)(C)c1cc2c(s1)CCNCC2` [Example 45, 2-tert-Butyl-5,6,7,8-tetrahydro-4H-thieno[2,3-d]azepine], the pEC50 was above 7.00.

As to `CC(C)(C)c1sc2c(c1Cl)CCNCC2` [Example 46, 2-tert-Butyl-3-chloro-5,6,7,8-tetrahydro-4H-thieno[2,3-d]azepine], the negative logarithm of the EC50 (pEC50) was above 7.00.

`CC(C)(C)CC(C)(C)c1sc2c(c1Cl)CCNCC2` [Example 47, 3-Chloro-2-(1,1,3,3-tetramethyl-butyl)-5,6,7,8-tetrahydro-4H-thieno[2,3-d]azepine]: the pEC50 is above 5.00.

Take `Clc1csc2c1CCNCC2` [Example 48, 3-Chloro-5,6,7,8-tetrahydro-4H-thieno[2,3-d]azepine]: the negative-log EC50 (pEC50) was above 5.00.

Take `Brc1cc2c(o1)CCNCC2` [Example 49, 2-Bromo-5,6,7,8-tetrahydro-4H-furo[2,3-d]azepine]: the pEC50 was above 6.00.
